Source: patent publication US12433892B2, “Compositions and methods of treatment for neurological disorders comprising depression” (Gliapharm SA, priority 2018, dated 2025)
Structures can show the parent of a compound that is named as a salt.

Assays:
[1] = tested on: C57Bl/6 male and female mice; assay: In vivo chronic toxicity (28 days)
Method: During this period, clinical symptoms and weight were recorded.
Chronic toxicity was assessed.

C57Bl/6 mice [2] = assay: Grip strength test (GST); type: in vivo, mouse; details: 100 mg/kg per os, 1.5 hr
Method: (§1) The depression mouse model features wild-type C57Bl/6 laboratory mice without any transgenic changes. To ensure that the actions of the tested molecules in the animal models of depression are not due to effects on locomotor activity or muscle strength in animals, molecules are administered to mice that are then tested in the grip strength test (GST) and in the open-field test (OFT) following the protocols described in Carrard et al. (Carrard, Elsayed, Margineanu, Boury-Jamot, Frangiere, Meylan, Petit, Fiuemlli, Magistretti and Martin. Peripheral administration of lactate produces antidepressant-like effects. Molecular Psychiatry, 2016 Oct. 18, e-pub). If alterations in muscle strength and/or locomotor activity are measured following administration drug, no further analyses are performed with this molecule.
GST is a test used to identify molecules that could modulate mouse grip strength, which might affect results in the FST. 1.5 hr after a single oral molecules administration, mice are placed on a grid dynamometer and the muscle strength (N) or their two front paws or all their four paws is measured in 3 consecutive sessions, and the best score is recorded.

[3] = tested on: cerebral extracellular lactate; assay: In vivo pharmacodynamics: lactate biosensors in cortex; design: species or system mouse; details: 10 mg/kg per os
Method: Extracellular levels of lactate were monitored in vivo using lactate biosensors (Pinnacle Technology), according to the manufacturer's instructions. Cannulae were surgically implanted in mice cerebral cerebral motor cortex areas M1/M2 (coordinates: +1.94 mm (to bregma), lateral −1.4 mm (to mideline), ventral −1.0 mm (to dura)) 5-7 days before administration of the compounds. Drugs were administered per os as previously described, and cerebral levels of extracellular lactate were dynamically recorded for 6 hours. Mice were administered vehicle alone first, followed 3 hours later by vehicle or drug (10 or 100 mg/kg). Area Under the Curve (AUC) quantifying the fluctuations of extracellular lactate concentrations for each of the compound tested was calculated using Graphad Prism and the ratio of AUC after drug over Vehicle administration was calculated. Groups of 8 male mice were used for each condition.
To measure biological effect of lead molecules in vivo in the brain, lactate levels were quantified after administration of the drug by using lactate biosensors implanted in the cortex of freely moving mice.

C57Bl/6 mice [4] = assay: Forced swim test (FST); type: in vivo, mouse; details: 100 mg/kg per os, 1.5 hr
Method: as §1
FST is a test used to identify molecules that produce an acute antidepressant-like behavioral response.
1.5 hr after a single oral (vehicle or lactate-enhancing molecules) or intraperitoneal (vehicle, fluoxetine or despratmine) administration, mice are placed in a cylindrical container filled to a depth of 15 cm with water (23-25° C.). 6-min swim session are videotaped, and time spent immobile, which reflects the animal depressive-like behavior, is scored subsequently by an experimenter blind to the conditions used.

[5] = In vivo pharmacokinetics (PFC microdialysis and plasma); design: species or system mouse; details: after gavage with 100 mg/kg
Method: Mice were anesthetized using isoflurane (2% and 800 mL/min O2). Before surgery, Finadyne (1 mg/kg, s.c.) was administered for analgesia during surgery and the post-surgical recovery period. A mixture of bupivacaine and epinephrine was used for local anesthesia of the incision site of the periost of the skull.
The animals were placed in a stereotaxic frame (Kopf instruments, USA). MetaQuant microdialysis probes with a 3 mm exposed polyacrylonitrile membrane (MQ-PAN 3/3, Brainlink, the Netherlands) were implanted into the prefrontal cortex (coordinates for the tip of the probe: AP=+2.0 mm (to bregma), lateral=−0.7 mm (to midline), ventral=−3.3 mm (to dura), with the incisor bar set at 0.0 mm and an angle of 8°). All coordinates were based on “The mouse brain in stereotaxic coordinates” by Paxinos and Franklin (2004). The probes were attached to the skull with a stainless steel screw and dental cement (Fuji Plus Capsules, Henry Schein, the Netherlands).
In the same surgical procedure, a catheter was placed into the jugular vein to accommodate blood sampling. An indwelling cannula was inserted into the right jugular vein, and exteriorized through an incision on top of the skull. The end of the jugular vein catheter was fixed in position with dental acrylic cement and attached to the skull with two stainless steel screws.
Experiments were initiated one day after surgery. The MetaQuant microdialysis probes were connected with flexible PEEK tubing (Western Analytical Products Inc. USA; PK005-020) to a microperfusion pump (CMA Microdialysis) and perfused with aCSF+0.2% BSA at a flow rate of 0.12 μL/min. Ultrapurified water+0.2% BSA was used as the carrier flow at a flow rate of 0.80 μL/min. After a minimum of 1.5 hours of prestabilization, microdialysis samples were collected in 30 minute intervals. Samples were collected into polystyrene microvials (Microbiotech/se AB, Sweden; 4001029) using an automated fraction collector (UV 8301501, TSE, Univentor, Malta). After collection of three basal samples, at t=0 minutes, drug of interest was administered per os. Eight additional samples were collected after compound administration. All samples were stored at −80° C. until off-line analysis.
In parallel, blood samples (50 μL) were taken from the jugular vein through the cannula. These samples were collected at specified intervals into vials containing 5 μL heparin (500 IE/mL in saline). The samples were mixed by inverting the tubes and, subsequently, centrifuged at 4000 rpm (1500×g) for 10 min at 4° C. The supernatant was stored as plasma in 1.5 mL Eppendorf vials (Sarstedt, Germany) at −80° C. until off-line analysis.
At the end of the experiment, the animals were euthanized and terminal brain tissue was collected for visual histological verification of the probe positions.
PK was measured for GP-04, GP-05, GP-07, GP-R1 and GP-P1 in the PFC (prefrontal cortex) and plasma of wild type C56Bl/6 mice by CRO Brainsonline.

astrocytes [6] = assay: Intracellular glycogen quantification; type: cell-based, mouse; details: Prestwick hits; 10 uM, 3 h
C57Bl/6 mice [7] = assay: Open field test (OFT); type: in vivo, mouse; details: 100 mg/kg per os, 1.5 hr
Method: as §1
OFT is a test used to identify molecules that could modulate mouse activity, which might affect results in the FST. 1.5 hr after a single oral molecules administration, mice are placed in a 39 cm (long)×33 cm (large)×33 cm (high) open box and their activity is videotaped for 10 minutes. Mouse activity is then automatically scored using Ethovision pro video tracking system (Noldus).

primary astrocytes = assay: High throughput screening (HTS) for lactate secretion: acidification of extracellular medium (SNARF5); type: cell-based, mouse; details: Appendix I; primary screening confirmation (SNARF5)
Method: Primary cultures of cerebrocortical astrocytes were obtained from 1-2-day-old OF1 mouse pups (Charles River Laboratories). Briefly, cortices were isolated and minced in small pieces under a dissecting microscope. The cells were incubated for 30 min at 37° C. in a solution containing 20 U/ml of papain enzyme (Worthington Biochemical), L-cysteine 1 mM (Sigma), and 10 kU/ml DNase I (Worthington Biochemical) for an enzymatic dissociation. […]
Secretion of lactate in a high-throughput screening (HTS) fashion was measured indirectly through the acidification of extracellular medium. […]
After 90 min stimulation, fluorescence was read at exc. […] The ratio of fluorescence between 630 nm and 580 emission values, which represents extracellular pH, was calculated.
In each plate, 8 wells were used for negative controls (DMSO) and 8 wells were used for positive controls (CCCP 2 uM in DMSO). Z prime values were calculated for each of the plates tested and values<0 were discarded.
The average and SD of compounds' values tested in duplicates were calculated, and compound was noted as HIT when the difference between compound's average and negative control's average was greater than three times the sum of compound's SD and negative controls' SD. […] Scores are calculated as the % of activity compared to the positive control in each plate (which is 100%). […]

astrocytes [8] = assay: Extracellular lactate quantification; type: cell-based, mouse; design: Score_LACTATE / Score Lact.: scale not given here; details: Appendix I; secondary screening, dosage of extracellular lactate
Method: Primary cultures of cerebrocortical astrocytes were obtained from 1-2-day-old OF1 mouse pups (Charles River Laboratories). Briefly, cortices were isolated and minced in small pieces under a dissecting microscope. The cells were incubated for 30 min at 37° C. in a solution containing 20 U/ml of papain enzyme (Worthington Biochemical), L-cysteine 1 mM (Sigma), and 10 kU/ml DNase I (Worthington Biochemical) for an enzymatic dissociation. Papain activity was stopped by the addition of fetal calf serum (FCS) to the solution, and a single-cell suspension was then obtained by mechanical dissociation, which consisted in cells trituration in a DMEM (D7777, Sigma-Aldrich) medium (supplemented with 44 mm NaHCO3, and 10 ml/L antibiotic/antimycotic solution) containing 10% FCS. The cells were seeded at an average density of 6×10^4 cells/cm^2 in poly-D-lysine-coated 96, 12 or 6-well culture plates, depending on their use, and incubated at 37° C. in a humidified atmosphere containing 5% CO2/95% air. Culture medium was renewed twice per week. Cells were stimulated and harvested between DIV14 and DIV17, when confluence and cell growth were optimal.
Secretion of L-lactate was determined in the extracellular medium of 96-well plated astrocytes after 90 min stimulation (at 37° C., in 5% CO2/95% air conditions) with the drug of interest. The stimulation medium was composed of D5030 medium (completed with D-glucose 5 mM and 44 mM sodium bicarbonate) for 90 min in concentrations ranging from 0 to 100 μM.
Briefly, 200 μl of a Glycine (Sigma)-Semicarbazide (Acros) 0.2M pH 10 buffer containing 3 mM NAD (Roche) and LDH 14 U/ml (Roche) was added to each well of a 96-well plate containing 30 μl aliquots complemented with 20 μl fresh complete D5030 medium. Samples were incubated at 37° C. for 1 h. After samples cooled down at room temperature, the fluorescence intensity (340 nm excitation/450 nm emission) that represents the amount of NADH produced was measured, and lactate concentration values were determined from a standard curve of L-lactate.
Statistical analysis consisted in ANOVA followed by Fisher LSD post-hoc test for pair-wise comparisons.
Levels of lactate secreted by astrocytes were measured in the extracellular medium at 90 min after stimulation with hits (molecules) from the CDC54K library.

| SMILES | chronic toxicity (toxic or safe) ([1]; 10 mg/kg per os once a day, 28 days) | pathological analysis ([1]; chronic 10 mg/kg, liver, kidney) | grip strength (C57Bl/6 mice [2]) | cerebral lactate (AUC ratio vs vehicle) [3] | time spent immobile (C57Bl/6 mice [4]) | levels in the PFC [5] | Glycogen (statistical significance of glycogen degradation) (astrocytes [6]) | activity (open field) (C57Bl/6 mice [7]) | Score_SNARF (primary astrocytes) | Score_LACTATE (astrocytes [8]) |
| --- | --- | --- | --- | --- | --- | --- | --- | --- | --- | --- |
| COc1ccc(Cc2nccc3cc(OC)c(OC)cc23)cc1OC [Papaverine hydrochloride] | safe | minor treatment-related effects | does not affect | Significant increase | significant reduction | at therapeutic range (100 nM to 1 uM) and sustained over several hours | **** (****p<0.0001) | does not affect | – | – |
| O=C(C[n+]1cc(-c2ccccc2)n2c1CCC2)c1ccc(Br)cc1.[Br-] [T0502-5560] | – | – | – | – | – | – | – | – | 0.8504 | 0.8524 |
